# Measurements taken from patent publication US9265248B2, “Water soluble antimicrobial composition” (Medivators Inc., priority 2011, dated 2016).
# Tested on: bacteria
# Experiment: Residual test on coated carriers, 10 minute contact time (organism not named)
# Format: cell-based
# Conditions: average over all inocula of the sample
# Text: Solutions of examples 12-01 to 12-05 were used to coat polycarbonate or glass carriers. Once dried, bacteria were inoculated on top of the coating and a log reduction of bacteria was obtained after a certain contact time. CFU=Colony Forming Units, TNTC=Too numerous to count, BCP=benzalkonium chloride powder, ThP=thymol powder
substance,measurement,value
alkyldimethylbenzylammonium chloride [0.3 wt % benzalkonium chloride control],Average Log 10 Reduction,0.5
